Experimental data from PMC11444331 (Journal of medicinal chemistry, 2024).
Bridge positions count the residues as written; N and C are the ends. Peptide text beside a SMILES is read from it.

What was measured:
human α7 nAChRs = human α7 nAChRs (Homo sapiens, UniProt P36544); test: cell-based
human α9α10 nAChRs = human α9α10 nAChRs (Homo sapiens, UniProt Q9GZZ6+Q9UGM1); test: cell-based
Chain of human α9α10 nAChRs (Q9UGM1 26-479 limits assumed): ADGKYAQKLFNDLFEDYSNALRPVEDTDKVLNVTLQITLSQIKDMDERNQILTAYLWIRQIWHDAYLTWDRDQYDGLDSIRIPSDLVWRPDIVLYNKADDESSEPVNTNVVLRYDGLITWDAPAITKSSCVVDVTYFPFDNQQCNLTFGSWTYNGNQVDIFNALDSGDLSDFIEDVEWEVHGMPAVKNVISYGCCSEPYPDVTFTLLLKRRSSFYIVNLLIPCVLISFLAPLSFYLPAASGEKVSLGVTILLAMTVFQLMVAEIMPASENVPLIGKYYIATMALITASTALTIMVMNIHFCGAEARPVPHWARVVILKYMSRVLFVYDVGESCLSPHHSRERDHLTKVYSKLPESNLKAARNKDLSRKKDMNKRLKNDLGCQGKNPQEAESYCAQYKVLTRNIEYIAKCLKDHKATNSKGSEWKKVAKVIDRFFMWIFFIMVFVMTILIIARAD
Chain of human α9α10 nAChRs (Q9GZZ6 25-450 limits assumed): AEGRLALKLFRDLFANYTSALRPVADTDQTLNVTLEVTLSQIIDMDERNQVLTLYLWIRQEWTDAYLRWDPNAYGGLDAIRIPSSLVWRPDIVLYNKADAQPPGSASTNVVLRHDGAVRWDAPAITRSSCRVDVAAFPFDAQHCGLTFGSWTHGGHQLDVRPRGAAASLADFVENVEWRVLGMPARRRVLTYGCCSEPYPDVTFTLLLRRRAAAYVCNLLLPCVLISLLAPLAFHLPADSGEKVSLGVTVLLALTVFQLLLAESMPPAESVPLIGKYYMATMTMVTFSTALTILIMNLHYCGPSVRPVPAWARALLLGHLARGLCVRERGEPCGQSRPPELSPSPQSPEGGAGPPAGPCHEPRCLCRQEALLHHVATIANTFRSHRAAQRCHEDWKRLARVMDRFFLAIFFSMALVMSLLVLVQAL

Chain of human α7 nAChRs (P36544 23-502 limits assumed): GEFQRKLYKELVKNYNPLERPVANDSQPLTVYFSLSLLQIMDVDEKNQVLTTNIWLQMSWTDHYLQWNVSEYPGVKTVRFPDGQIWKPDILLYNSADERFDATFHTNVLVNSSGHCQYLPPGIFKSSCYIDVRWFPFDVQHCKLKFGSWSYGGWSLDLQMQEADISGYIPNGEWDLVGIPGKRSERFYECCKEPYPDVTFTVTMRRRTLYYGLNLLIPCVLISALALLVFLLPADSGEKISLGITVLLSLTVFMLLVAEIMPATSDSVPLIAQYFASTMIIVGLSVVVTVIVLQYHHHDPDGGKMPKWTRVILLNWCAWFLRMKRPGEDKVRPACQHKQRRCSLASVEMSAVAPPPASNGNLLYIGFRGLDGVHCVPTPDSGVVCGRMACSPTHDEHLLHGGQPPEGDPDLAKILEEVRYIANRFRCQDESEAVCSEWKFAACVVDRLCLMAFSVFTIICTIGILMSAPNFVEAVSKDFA

## C[C@@H]1NC(=O)[C@H](CCCNC(=N)N)NC(=O)[C@H](CO)NC(=O)[C@H](CCCNC(=N)N)NC(=O)[C@H](CO)NC(=O)[C@@H]2CSSC[C@H](NC(=O)CN)C(=O)N[C@@H](CSSC[C@@H](C(N)=O)NC(=O)[C@H](CO)NC(=O)[C@H](CO)NC1=O)C(=O)N[C@@H](CO)C(=O)N[C@@H](Cc1c[nH]cn1)C(=O)N1CCC[C@H]1C(=O)N[C@@H](C)C(=O)N2 [conofurin-Delta-SRSRASS] (H-GCCSHPACSRSRASSC-NH2; disulfide 2-8, 3-16)
Human α7 nAChRs
  IC50: 5.4 µM
Human α9α10 nAChRs
  IC50: > 10 µM
